Reference: patent publication EP4206196A1, “PYRIMIDINE SUBSTITUTED DERIVATIVES AS TYK2 INHIBITORS” (Almirall S.A., priority 2021, dated 2023)

Key:
[1] = system: STAT1/3 through TYK2/JAK1; assay: IFNa induced STAT phosphorylation in HEK293 cells (SIE-bla reporter gene); type: cell-based; conditions: Homo sapiens, HEK293; HEK293T-sie-bla cells, IFNa at EC80, 4 hours; read-out: Inhibition of IFNa induced STAT phosphorylation HEK293 cells IC50
Outline: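 HEK293T cells carrying a SIE-driven β-lactamase reporter were co-treated with compound (1/5 serial dilution, 10 points, 0.1% DMSO final) and IFNa at EC80 for 4 h at 37°C. β-Lactamase substrate was added to stop the stimulation, followed by overnight dark incubation and FRET read. IC50 from a four-parameter logistic fit.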

[2] = target: T1, TYK2 (JH2domain-pseudokinase) (Homo sapiens, UniProt P29597); assay: TYK2 JH2 domain binding assay (KINOMEscan)
T1 construct: TYK2 (JH2domain-pseudokinase)-tagged T7 phage strains were prepared in an E. coli host derived from the BL21 strain; made in house; host or cells: E. coli BL21-derived host (T7 phage) or HEK-293 cells
Outline: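 Competition binding of DNA-tagged TYK2 JH2 pseudokinase domain against immobilised affinity ligand, 1 h at room temperature in SeaBlock/PBS/Tween/DTT buffer with about 1% DMSO. Bound kinase eluted and quantified by qPCR. Kd taken from 11-point 3-fold series, usually 30,000 nM top, fitted by Levenberg-Marquardt nonlinear least squares.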

STAT6 through JAK1/JAK3 = assay: IL4 induced STAT phosphorylation in Ramos cells (STAT6-bla reporter gene); type: cell-based; conditions: Homo sapiens, Ramos; for inhibition at 5 µM: compound concentration 5 µM; for inhibition at 25 µM: compound concentration 25 µM
Protocol: Stimulation of RAMOS cells with interleukine IL-4 activates the signaling pathway of STAT6 through JAK1/JAK3. In this assay, measurement of the activity of the reporter gene β-lactamase expression was used as the readout.
Ramos STAT6-bla RA-1 cell line were purchased from Life Technologies (ref. #K1243) and cultured as specified by the provider. A number of 30.000 cells per well (35 µl) were plated in a 384-well plate (Corning ref.# 3712) and cultured overnight at 37°C with 5% CO2 in a complete Optimem media (Life Technologies ref. #11058-021) containing 556 µg/mL CD40 (Life Technologies ref. #PHP0025), 0.5% (v/v) heat inactivated FBS (Life Technologies ref. #10082-147), 10 µM non-essential aminoacids NEAA (Sigma ref. #M7145), 100 µM Sodium Pyruvate (Gibco ref. #11360-039) and 100 U/mL Penicillin (Sigma ref. #P0781). Compounds were initially dissolved in 100% DMSO. Compound curves were then prepared using a 1/5 serial dilution (10 dilutions). The dilutions were directly diluted in complete Optimem media without CD40 at 40-fold their final concentration in 20% DMSO. IL-4 initial solution (Prepotech ref. #200-04) was prepared at 10-fold its EC80 in complete Optimem media without CD40. Compounds and IL-4 were added simultaneously to the wells with cells and incubated during 4 hours at 37°C (the final DMSO was 0.1%). The β-lactamase substrate (LifeTechnologies ref.#K1138) was prepared at 6-fold its final concentration as specified by the provider. Then 10 µL of the mixture was added to the wells to stop the stimulation. Plate was left in the dark over-night. Then a FRET reading was performed on an appropriate plate reader.
All experiments were analysed using an ExcelFit template and the four-parameter log equation. As % vs compound concentration. TABLE 3: Inhibition of IL4 induced STAT phosphorylation in Ramos cells.

T1 sequence (P29597 589-875 limits assumed): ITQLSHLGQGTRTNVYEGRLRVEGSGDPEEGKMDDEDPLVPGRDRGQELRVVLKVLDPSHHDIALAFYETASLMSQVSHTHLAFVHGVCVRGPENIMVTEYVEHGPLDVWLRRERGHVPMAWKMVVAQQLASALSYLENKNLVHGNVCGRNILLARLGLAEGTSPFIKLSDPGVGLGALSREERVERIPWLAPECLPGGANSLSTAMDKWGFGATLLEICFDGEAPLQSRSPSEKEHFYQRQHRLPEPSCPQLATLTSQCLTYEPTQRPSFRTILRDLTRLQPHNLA

| Structure (SMILES) | IC50 [1] | Kd [2] | inhibition at 5 µM (STAT6 through JAK1/JAK3) | inhibition at 25 µM (STAT6 through JAK1/JAK3) |
| --- | --- | --- | --- | --- |
| COc1cc(-c2cnn(C)c2C)ccc1Nc1cc(Nc2cc(C)nc(C)n2)ncn1 [Example 80, N6-[4-(1,5-dimethylpyrazol-4-yl)-2-methoxy-phenyl]-N4-(2,6-dimethylpyrimidin-4-yl)pyrimidine-4,6-diamine] | 10 to 100 nM | < 0.2 nM | 47% |  |
| Cc1cc(Nc2cc(Nc3ccc(-c4cnn(C)c4C)cc3S(C)(=O)=O)ncn2)nc(C)n1 [Example 86, N4-[4-(1,5-dimethylpyrazol-4-yl)-2-methylsulfonyl-phenyl]-N6-(2,6-dimethylpyrimidin-4-yl)pyrimidine-4,6-diamine] | < 10 nM | < 0.2 nM |  | 78% |
| Cc1cc(Nc2cc(Nc3ncc(-c4cnn(C)c4C)cc3N(C)S(C)(=O)=O)ncn2)ncc1F [Example 103, N-[5-(1,5-dimethylpyrazol-4-yl)-2-[[6-[(5-fluoro-4-methyl-2-pyridyl)amino]pyrimidin-4-yl]amino]-3-pyridyl]-N-methyl-methanesulfonamide] | < 10 nM | < 0.2 nM | 49% |  |
| Cc1cc(Nc2cc(Nc3ncc(-c4cnn(C)c4C)cc3N(C)S(C)(=O)=O)ncn2)nc(C)n1 [Example 124, N-[5-(1,5-dimethylpyrazol-4-yl)-2-[[6-[(2,6-dimethylpyrimidin-4-yl)amino]pyrimidin-4-yl]amino]-3-pyridyl]-N-methyl-methanesulfonamide] | < 10 nM | < 0.2 nM | 50% |  |
| Cc1cc(Nc2cc(Nc3ncccc3S(C)(=O)=O)ncn2)nc(C)n1 [Example 125, N4-(2,6-dimethylpyrimidin-4-yl)-N6-(3-methylsulfonyl-2-pyridyl)pyrimidine-4,6-diamine] | < 10 nM | < 0.2 nM | 46% |  |
| Cc1cc(Nc2cc(Nc3ncc(-c4cnn(C)c4C)cc3S(C)(=O)=O)ncn2)nc(C)n1 [Example 137, N4-[5-(1,5-dimethylpyrazol-4-yl)-3-methylsulfonyl-2-pyridyl]-N6-(2,6-dimethylpyrimidin-4-yl)pyrimidine-4,6-diamine] | < 10 nM | < 0.2 nM |  | 0% |
| Cc1c(-c2cnc(Nc3cc(Nc4ccc(F)cn4)ncn3)c(N(C)S(C)(=O)=O)c2)cnn1C [Example 138, N-[5-(1,5-dimethylpyrazol-4-yl)-2-[[6-[(5-fluoro-2-pyridyl)amino]pyrimidin-4-yl]amino]-3-pyridyl]-N-methyl-methanesulfonamide] | < 10 nM | < 0.2 nM | 6% |  |

Second part, led by results:

| IC50 [1] | Kd [2] | Structure (SMILES) | inhibition at 5 µM (STAT6 through JAK1/JAK3) | inhibition at 25 µM (STAT6 through JAK1/JAK3) |
| --- | --- | --- | --- | --- |
| < 10 nM | < 0.2 nM | COc1c(-c2ncn(C)n2)ccnc1Nc1cc(Nc2cc(C)nc(C)n2)ncn1 [Example 119, N6-(2,6-dimethylpyrimidin-4-yl)-N4-[3-methoxy-4-(1-methyl-1,2,4-triazol-3-yl)-2-pyridyl]pyrimidine-4,6-diamine] | 47% |  |
| < 10 nM | < 0.2 nM | Cc1cc(Nc2cc(Nc3ncc(-c4cnn(C)c4)cc3N(C)S(C)(=O)=O)ncn2)nc(C)n1 [Example 126, N-[2-[[6-[(2,6-dimethylpyrimidin-4-yl)amino]pyrimidin-4-yl]amino]-5-(1-methylpyrazol-4-yl)-3-pyridyl]-N-methyl-methanesulfonamide] |  | 54% |
| 100 to 1000 nM | < 0.2 nM | Cc1cc(Nc2cc(Nc3ncc(-c4cnn(C)c4C)cc3N(C)S(C)(=O)=O)ncn2)ncn1 [Example 135, N-[5-(1,5-dimethylpyrazol-4-yl)-2-[[6-[(6-methylpyrimidin-4-yl)amino]pyrimidin-4-yl]amino]-3-pyridyl]-N-methyl-methanesulfonamide] | 37% |  |
| < 10 nM | < 0.2 nM | Cc1c(-c2cnc(Nc3cc(NC(=O)C4CC4)ncn3)c(N(C)S(C)(=O)=O)c2)cnn1C [Example 139, N-[6-[[5-(1,5-dimethylpyrazol-4-yl)-3-[methyl(methylsulfonyl)amino]-2-pyridyl]amino]pyrimidin-4-yl]cyclopropanecarboxamide] | 28% |  |
